Assay results from PubChem BioAssay (NCI).
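In this assay, cells in 96-well plates receive the compound at five concentrations for 48 hours. Endpoints are linearly interpolated between the surrounding concentrations. The concentration for 50% growth inhibition is given as GI50. TGI: concentration producing complete growth inhibition.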

Tests used:
Assay in all cases: growth of human tumour cells (NCI), 48 h; in the data active means GI50 below about 0.43 µM; inactive means the rest
SNB-75 CNS = system: SNB-75 CNS
SK-OV-3 ovarian = system: SK-OV-3 ovarian
M14 melanoma = system: M14 melanoma
MOLT-4 leukemia = system: MOLT-4 leukemia
A498 renal = system: A498 renal
PC-3 prostate = system: PC-3 prostate
IGROV1 ovarian = system: IGROV1 ovarian
NCI-H226 lung = system: NCI-H226 lung
HOP-92 NSCLC = system: HOP-92 NSCLC
MDA-MB-231 breast = system: MDA-MB-231 breast
CAKI-1 renal = system: CAKI-1 renal
HOP-62 NSCLC = system: HOP-62 NSCLC
U251 CNS = system: U251 CNS
A549 NSCLC = system: A549 NSCLC
MCF7 breast = system: MCF7 breast
SF-539 CNS = system: SF-539 CNS
NCI/ADR-RES ovarian = system: NCI/ADR-RES ovarian
UACC-257 melanoma = system: UACC-257 melanoma
SK-MEL-28 melanoma = system: SK-MEL-28 melanoma
SR leukemia = system: SR leukemia
MDA-MB-435 = system: MDA-MB-435
HT29 colon = system: HT29 colon
SK-MEL-2 melanoma = system: SK-MEL-2 melanoma
CCRF-CEM leukemia = system: CCRF-CEM leukemia
HCC-2998 colon = system: HCC-2998 colon
HS 578T breast = system: HS 578T breast
ACHN renal = system: ACHN renal
OVCAR-4 ovarian = system: OVCAR-4 ovarian
RXF 393 renal = system: RXF 393 renal
OVCAR-5 ovarian = system: OVCAR-5 ovarian
UO-31 renal = system: UO-31 renal
OVCAR-3 ovarian = system: OVCAR-3 ovarian
NCI-H460 lung = system: NCI-H460 lung
SK-MEL-5 melanoma = system: SK-MEL-5 melanoma
K-562 leukemia = system: K-562 leukemia
OVCAR-8 ovarian = system: OVCAR-8 ovarian
SF-268 CNS = system: SF-268 CNS
EKVX NSCLC = system: EKVX NSCLC
786-0 renal = system: 786-0 renal
TK-10 renal = system: TK-10 renal
SN12C renal = system: SN12C renal
KM12 colon = system: KM12 colon
COLO 205 colon = system: COLO 205 colon
DU-145 prostate = system: DU-145 prostate
LOX IMVI melanoma = system: LOX IMVI melanoma
HL-60(TB) leukemia = system: HL-60(TB) leukemia
SNB-19 CNS = system: SNB-19 CNS
UACC-62 melanoma = system: UACC-62 melanoma
SW-620 colon = system: SW-620 colon
T-47D breast = system: T-47D breast
BT-549 breast = system: BT-549 breast
HCT-116 colon = system: HCT-116 colon
NCI-H23 lung = system: NCI-H23 lung

COc1cc(-c2nn(-c3ccc(NC(=O)c4cc(Cl)cc(Cl)c4)cc3)cc2-c2ccncc2)ccc1Cl
7.66 µM: TGI (786-0 renal)
> 100 µM: TGI (SNB-75 CNS) | TGI (SK-OV-3 ovarian) | TGI (M14 melanoma) | TGI (MOLT-4 leukemia) | TGI (A498 renal) | TGI (PC-3 prostate) | TGI (IGROV1 ovarian) | TGI (NCI-H226 lung) | TGI (HOP-92 NSCLC) | TGI (MDA-MB-231 breast) | TGI (CAKI-1 renal) | TGI (HOP-62 NSCLC) | TGI (U251 CNS) | TGI (A549 NSCLC) | TGI (MCF7 breast) | TGI (SF-539 CNS) | TGI (NCI/ADR-RES ovarian) | TGI (UACC-257 melanoma) | TGI (SK-MEL-28 melanoma) | TGI (SR leukemia) | TGI (MDA-MB-435) | TGI (HT29 colon) | TGI (SK-MEL-2 melanoma) | TGI (CCRF-CEM leukemia) | TGI (HCC-2998 colon) | TGI (HS 578T breast) | TGI (ACHN renal) | TGI (OVCAR-4 ovarian) | TGI (RXF 393 renal) | TGI (OVCAR-5 ovarian) | TGI (UO-31 renal) | TGI (OVCAR-3 ovarian) | TGI (NCI-H460 lung) | TGI (SK-MEL-5 melanoma) | TGI (K-562 leukemia) | TGI (OVCAR-8 ovarian) | TGI (SF-268 CNS) | TGI (EKVX NSCLC) | TGI (TK-10 renal) | TGI (SN12C renal) | TGI (KM12 colon) | TGI (COLO 205 colon) | TGI (DU-145 prostate) | TGI (LOX IMVI melanoma) | TGI (HL-60(TB) leukemia) | TGI (SNB-19 CNS) | TGI (UACC-62 melanoma) | TGI (SW-620 colon) | TGI (T-47D breast) | TGI (BT-549 breast) | TGI (HCT-116 colon) | TGI (NCI-H23 lung)
inactive: GI50 (SNB-75 CNS) 4.14 µM | GI50 (SK-OV-3 ovarian) > 100 µM | GI50 (M14 melanoma) 7.39 µM | GI50 (MOLT-4 leukemia) 4.83 µM | GI50 (A498 renal) > 100 µM | GI50 (PC-3 prostate) 42 µM | GI50 (IGROV1 ovarian) > 100 µM | GI50 (NCI-H226 lung) > 100 µM | GI50 (HOP-92 NSCLC) > 100 µM | GI50 (MDA-MB-231 breast) 9.93 µM | GI50 (CAKI-1 renal) > 100 µM | GI50 (HOP-62 NSCLC) 32 µM | GI50 (U251 CNS) 6.23 µM | GI50 (A549 NSCLC) > 100 µM | GI50 (MCF7 breast) > 100 µM | GI50 (SF-539 CNS) 4.73 µM | GI50 (NCI/ADR-RES ovarian) > 100 µM | GI50 (UACC-257 melanoma) > 100 µM | GI50 (SK-MEL-28 melanoma) > 100 µM | GI50 (SR leukemia) > 100 µM | GI50 (MDA-MB-435) > 100 µM | GI50 (HT29 colon) 3.53 µM | GI50 (SK-MEL-2 melanoma) > 100 µM | GI50 (CCRF-CEM leukemia) 5.77 µM | GI50 (HCC-2998 colon) 5.88 µM | GI50 (HS 578T breast) 3.29 µM | GI50 (ACHN renal) > 100 µM | GI50 (OVCAR-4 ovarian) > 100 µM | GI50 (RXF 393 renal) 2140 nM | GI50 (OVCAR-5 ovarian) > 100 µM | GI50 (UO-31 renal) 6.86 µM | GI50 (OVCAR-3 ovarian) > 100 µM | GI50 (NCI-H460 lung) 8.48 µM | GI50 (SK-MEL-5 melanoma) 12 µM | GI50 (K-562 leukemia) 2910 nM | GI50 (OVCAR-8 ovarian) > 100 µM | GI50 (SF-268 CNS) > 100 µM | GI50 (EKVX NSCLC) > 100 µM | GI50 (786-0 renal) 1970 nM | GI50 (TK-10 renal) > 100 µM | GI50 (SN12C renal) > 100 µM | GI50 (KM12 colon) 3.27 µM | GI50 (COLO 205 colon) 6.61 µM | GI50 (DU-145 prostate) > 100 µM | GI50 (LOX IMVI melanoma) 3.09 µM | GI50 (HL-60(TB) leukemia) 5.82 µM | GI50 (SNB-19 CNS) > 100 µM | GI50 (UACC-62 melanoma) 4.58 µM | GI50 (SW-620 colon) > 100 µM | GI50 (T-47D breast) > 100 µM | GI50 (BT-549 breast) > 100 µM | GI50 (HCT-116 colon) 16.3 µM | GI50 (NCI-H23 lung) > 100 µM
